We go through 22 compounds from patent US20260055117A1, “SUBSTITUTED PYRIDONE GPR84 ANTAGONISTS AND USES THEREOF” (Liminal BioSciences Limited, priority 2022, published 2026).

Assay [1] has as its system dextran sodium sulfate-induced chronic inflammatory bowel disease. To be noted: mouse; once-daily doses of 3 and 10 mg/kg; cited from earlier work.
A further assay deals with T1, human GPR84 receptor (Homo sapiens, UniProt Q9NQS5).
T1 construct: host or cells: HEK293, transiently transfected
The assay is described as follows: Gαi biosensor BRET assay (GPR84 antagonism vs agonist ZQ-16). Type of assay: cell-based. The conditions noted are these: HEK293 cells, 200 nmol/L agonist ZQ-16; for inhibition at 10 µM: tested at 10 μM (concentration code D); for IC50: Gαi biosensor BRET assay; for inhibition at 2 µM: tested at 2 μM (concentration code A). The method, boiled down:
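HEK293 cells transiently expressing GPR84, Gαi2-Rluc8, GFP10-Gγ2 and Gβ1 were pre-incubated with compounds 5 min at 37 °C in Tyrode's buffer pH 7.5, then stimulated with 200 nmol/L ZQ-16 for 5 min at room temperature. BRET2 (acceptor/donor ratio) read after 5 μmol/L coelenterazine 400A, background- and vehicle-corrected.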
A general note: BRET reads energy transfer from a luciferase to a nearby fluorophore.

Some results are limits rather than exact numbers.

T1 sequence (Q9NQS5 whole entry): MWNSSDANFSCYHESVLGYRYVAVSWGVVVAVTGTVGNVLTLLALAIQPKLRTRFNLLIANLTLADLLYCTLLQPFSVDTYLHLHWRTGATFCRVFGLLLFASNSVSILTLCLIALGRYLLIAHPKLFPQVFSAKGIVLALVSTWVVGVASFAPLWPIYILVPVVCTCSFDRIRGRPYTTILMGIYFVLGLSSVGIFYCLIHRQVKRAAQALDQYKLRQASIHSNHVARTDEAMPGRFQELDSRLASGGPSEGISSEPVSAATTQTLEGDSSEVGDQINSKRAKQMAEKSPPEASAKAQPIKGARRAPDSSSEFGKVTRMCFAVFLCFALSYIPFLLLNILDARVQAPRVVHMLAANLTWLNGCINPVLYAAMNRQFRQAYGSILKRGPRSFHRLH

Consider `O=c1nc(OC[C@@H]2COCCO2)cc2n1CCc1cc(C#CC3CC3)ccc1-2` [GLPG1205], for which, in assay [1], the “disease activity index score” value was “reduced” and the neutrophil infiltration entry was “reduced”. In the case of `Cc1cc(OCC(=O)N2CCC(F)(F)CC2)cc(=O)n1[C@H](C)c1ccc(C#CC2CC2)cc1` [Compound I-8], the inhibition – broadly, the drop in the measured response relative to a control, in per cent – at 10 µM on human GPR84 receptor is greater than 75%.

For the compound `Cc1cc(OCC(=O)N2CC[C@@H]2C(=O)O)cc(=O)n1[C@H](C)c1ccc(C#CC2CC2)cc1` [Compound I-300], on human GPR84 receptor, the IC50 (commonly the midpoint of a concentration-inhibition curve) fell in the range of 1000 to 3000 nM and the inhibition at 10 µM was greater than 75%. With `Cc1cc(OCC(=O)N(C)C)cc(=O)n1[C@H](C)c1ccc(C#CC2CC2)c(Br)c1` [Compound I-35], at human GPR84 receptor, the IC50 is no more than 300 nM and the inhibition at 2 µM is greater than 75%. In the case of `Cc1cc(OCC(=O)N2CC[C@H](NS(C)(=O)=O)C2)cc(=O)n1[C@H](C)c1ccc(C#CC2CC2)cc1` [Compound I-335], the inhibition at 2 µM at human GPR84 receptor is greater than 75%. Turning to `Cc1cc(OCC(=O)NCC(C)C)cc(=O)n1[C@H](C)c1ccc(C#CC2CC2)cc1` [Compound I-49], the inhibition at 10 µM on human GPR84 receptor is greater than 75%. For `Cc1cc(OCC(=O)N2CCC2)cc(=O)n1[C@H](C)c1ccc(C#CC2CC2)cc1` [Compound I-1, (R)-4-(2-(azetidin-1-yl)-2-oxoethoxy)-1-(1-(4-(cyclopropylethynyl)phenyl)ethyl)-6-methylpyridin-2 (1H)-one], on human GPR84 receptor, the IC50 is no more than 300 nM and the inhibition at 2 µM was greater than 75%. As for `Cc1cc(OCC(=O)N2CC[C@H](C(=O)O)[C@H]2C)cc(=O)n1[C@H](C)c1ccc(C#CC2CC2)cc1` [Compound I-304], on human GPR84 receptor, the IC50 is no more than 300 nM and the inhibition at 10 µM was greater than 75%. For `Cc1cc(OCCN2CCCC2)cc(=O)n1[C@H](C)c1ccc(C#CC2CC2)cc1` [Compound I-281], the inhibition at 10 µM on human GPR84 receptor was in the range of 25 to 50%.

On to `COCC1CN(C(=O)COc2cc(C)n([C@H](C)c3ccc(C#CC4CC4)cc3)c(=O)c2)C1` [Compound I-292], for which, on human GPR84 receptor, the IC50 is no more than 300 nM and the inhibition at 2 µM is greater than 75%.

In the case of `Cc1cc(OCC2OCCC(C)(C)O2)cc(=O)n1[C@H](C)c1ccc(C#CC2CC2)cc1` (stereo partly shown) [Compound I-40], the inhibition at 10 µM on human GPR84 receptor fell in the range of 25 to 50%. On human GPR84 receptor, `Cc1cc(OCC(=O)NC2COC2)cc(=O)n1[C@H](C)c1ccc(C#CC2CC2)cc1` [Compound I-52] returned an inhibition at 10 µM of 50 to 75%. Regarding `Cc1cc(OCC(=O)N2CC3CCC(C2)O3)cc(=O)n1[C@H](C)c1ccc(C#CC2CC2)cc1` [Compound I-325], at human GPR84 receptor, the IC50 is no more than 300 nM and the inhibition at 2 µM is greater than 75%. Turning to `COCCNC(=O)COc1cc(C)n([C@H](C)c2ccc(C#CC3CC3)cc2)c(=O)c1` [Compound I-349], at human GPR84 receptor, the inhibition at 10 µM was greater than 75%. On the same count and under the same terms, then `Cc1cc(OCC(=O)N2CCNCC2)cc(=O)n1[C@H](C)c1ccc(C#CC2CC2)cc1` [Compound I-61], with greater than 75%; and `Cc1cc(OCc2ncccn2)cc(=O)n1[C@H](C)c1ccc(C#CC#CC2CC2)cc1` [Compound I-75], with less than 25%.

As for `Cc1cc(OCC(=O)N(C)C(C)C)cc(=O)n1[C@H](C)c1ccc(C#CC2CC2)cc1` [Compound I-55], at human GPR84 receptor, the IC50 is no more than 300 nM and the inhibition at 10 µM is greater than 75%. At human GPR84 receptor, `Cc1cc(OCC(=O)N2CC(C)(C#N)C2)cc(=O)n1[C@H](C)c1ccc(C#CC2CC2)cc1` [Compound I-343] returned an IC50 of 1000 to 3000 nM and an inhibition at 2 µM greater than 75%. On human GPR84 receptor, `Cc1cc(OCC(=O)NC2CC2)cc(=O)n1[C@H](C)c1ccc(C#CC2CC2)cc1` [Compound I-50] displayed an IC50 of 300 to 1000 nM and an inhibition at 10 µM greater than 75%. As for `Cc1cc(OCC(=O)N2CC[C@H](S(C)(=O)=O)C2)cc(=O)n1[C@H](C)c1ccc(C#CC2CC2)cc1` [Compound I-253], the inhibition at 10 µM on human GPR84 receptor was greater than 75%. On human GPR84 receptor, `Cc1cc(OCc2ncnn2C)cc(=O)n1[C@H](C)c1ccc(C#CC2CC2)cc1` [Compound I-329] returned an IC50 of no more than 300 nM and an inhibition at 2 µM greater than 75%. For `Cc1cc(OCC(=O)N2CC(C(=O)O)C2)cc(=O)n1[C@H](C)c1ccc(C#CC2CC2)cc1` [Compound I-302] the same measures were no more than 300 nM and greater than 75%.
